PMC12040169 (PLOS Biology, 2025)

Test: in vitro
Conditions: human, hela cells, % viability

Compound | viability at 28.5 h, 10 µM
O=C(CSc1ccccc1)Nc1cccc(NC(=O)c2cccs2)c1 [CBK266788] | 96.7%
Cc1ccc(-c2nnc(-c3cccc(NC(=O)CSCc4ccc(Cl)cc4)c3)o2)cc1 [CBK266789] | 92.3%
Cc1ccc(NC(=O)COc2ccccc2)c(NC(=O)c2ccccc2I)c1 [CBK266793] | 98.2%
CCC(C(=O)Nc1cc(OC)c(OC)cc1C(=O)O)c1ccccc1 (stereo not shown) [CBK266794] | 106%
Cc1nnc2sc(-c3ccc(NC(=S)NC(=O)c4cc5ccccc5o4)cc3)nn12 [CBK266795] | 100%
CC(Oc1ccc(Br)cc1)C(=O)O/N=C(\N)c1ccncc1 (stereo not shown) [CBK266797] | 93%
COC(=O)c1cn(C(=O)CCCN2C(=O)c3ccccc3C2=O)c2ccccc12 [CBK266799] | 91.7%
COc1cc(NC(=O)c2ccc3c(c2)C(=O)N(Cc2cccnc2)C3=O)c(C(=O)O)cc1OC [CBK266802] | 88.1%
CC1(C)CC(NS(=O)(=O)c2ccc(Br)cc2)CC(C)(C)N1 [CBK266805] | 97.7%
CC1(C)CC(NC(=O)COc2ccc([N+](=O)[O-])cc2)CC(C)(C)N1 [CBK266806] | 98%
CC(CNS(=O)(=O)c1cc(Cl)ccc1Cl)CN(C)C (stereo not shown) [CBK266808] | 108%
Cc1ccc(NC(=O)COc2ccccc2)c(NC(=O)c2ccco2)c1 [CBK266809] | 95.6%
O=C(Nc1ccccc1)c1ccc(N2CCN(c3ccccn3)CC2)c(S(=O)(=O)N2CCOCC2)c1 [CBK266810] | 91.7%
CS(=O)(=O)N1CCC(C(=O)NNC(=S)Nc2cccc3ccccc23)CC1 [CBK266811] | 84.2%
S=C(NCCc1ccc(Cl)cc1)NCc1ccco1 [CBK266812] | 83.3%
NS(=O)(=O)c1ccc(NC(=O)C2CCCN(S(=O)(=O)c3ccc(Cl)cc3)C2)cc1 (stereo not shown) [CBK266813] | 91.7%
Cc1ccc(C)c(S(=O)(=O)NC(Cc2c[nH]c3ccccc23)C(=O)O)c1 (stereo not shown) [CBK266816] | 105%
O=C(NNC(=S)NCCc1ccccc1)c1ccc(Br)o1 [CBK266818] | 96.3%
COc1ccc(C(=O)Nc2ccc3c(c2)nc2n3CCN(Cc3ccccc3)C2)cc1 [CBK266820] | 82.5%
COc1cccc(/C=C\c2[nH]c(=O)[nH]c(=O)c2[N+](=O)[O-])c1OCC(=O)O [CBK266822] | 104%
O=C(CCSc1ccccc1)Nc1ccc(Br)cc1F [CBK266825] | 101%

Compound | viability at 28.5 h, 10 µM
CN1CCN(C(=S)c2ccc(OCC(=O)Nc3cccc(C(F)(F)F)c3)cc2)CC1 [CBK266826] | 92.2%
Cc1cc(=O)oc2cc(NC(=S)NNC(=O)c3ccc(Cl)s3)ccc12 [CBK266828] | 92.3%
COC(=O)c1ccccc1NC(=O)Nc1ccc(N2CCOCC2)c2nonc12 [CBK266830] | 90.6%
COc1ccc(NC(=O)Nc2nn(Cc3c(F)cccc3Cl)cc2Br)c(OC)c1 [CBK266834] | 83.8%
COc1ccc(OC)c(S(=O)(=O)N2CCC(C(=O)O)CC2)c1 [CBK266835] | 83.5%
O=C(CC1NCCNC1=O)Nc1ccc2c(c1)OCCO2 (stereo not shown) [CBK266837] | 99.3%
COc1ccccc1N1CCN(CCNC(=O)Nc2cccc(C)c2C)CC1 [CBK266839] | 90.2%
CCN(CC)CCN1C(=O)c2oc3cc(C)c(C)cc3c(=O)c2C1c1cc(Br)c(O)c(OC)c1 (stereo not shown) [CBK266846] | 105%
CC(=O)c1cccc(NC(=O)C2CCCN(S(=O)(=O)c3ccc(Cl)cc3)C2)c1 (stereo not shown) [CBK266847] | 102%
CCOc1cc(-c2cc(C(=O)O)c3ccccc3n2)ccc1O [CBK266848] | 103%
CCNS(=O)(=O)c1ccc(NC(=O)Nc2cc(C)ccc2OC)cc1 [CBK266850] | 106%
O=C(CN1CCOCC1)NCCNc1c(Cl)c(Cl)c(Cl)c(Cl)c1Cl [CBK266851] | 84.7%
CCOc1cc(C(=S)N2CCN(C)CC2)ccc1OCC(=O)N1CCOCC1 [CBK266856] | 101%
O=C(NCCNC1CCC(c2ccccc2)CC1)c1ccc(F)cc1 (stereo not shown) [CBK266857] | 88.2%
COc1ccccc1-c1nnc(Sc2nc([N+](=O)[O-])nn2C)o1 [CBK266858] | 85.1%
Cc1ccc(S(=O)(=O)N2C(=O)CCC2C(=O)O/N=C(\N)c2cccnc2)cc1 (stereo not shown) [CBK266864] | 111%
CCN1CCCC1CNC(=O)C(=O)Nc1ccccc1OC (stereo not shown) [CBK266865] | 103%
Cc1ccc(C(=O)NNC(=S)Nc2ccc(S(N)(=O)=O)cc2)cc1[N+](=O)[O-] [CBK266866] | 95.6%
C=CCn1c(SCC(=O)Nc2cc(Cl)ccc2C)nnc1-c1ccccc1O [CBK266867] | 94.5%
CCn1c2ccccc2n2c(SCC(=O)O)nnc12 [CBK266869] | 91.4%
O=C(NCCNCc1ccco1)c1ccc(F)cc1 [CBK266873G] | 103%

Compound | viability at 28.5 h, 10 µM
Cc1cccc(Cn2cnc(NC(=O)Nc3cccc(Cl)c3C)n2)c1 [CBK266876] | 89.5%
COC(=O)c1sc2cc(NC(=S)NNC(=O)c3ccoc3C)ccc2c1Cl [CBK266877] | 83.3%
O=S(=O)(c1ccc(Cl)cc1)N1CCN(S(=O)(=O)N2CCOCC2)CC1 [CBK266878] | 92.9%
CCN1CCN(C(=O)C2CCN(S(=O)(=O)c3ccc(Br)cc3)CC2)CC1 [CBK266881] | 103%
O=C(NNC(=O)c1cc2ccccc2cc1O)Nc1cccc([N+](=O)[O-])c1 [CBK266882] | 101%
COc1ccc(N(CC(=O)Nc2c(F)cccc2F)S(=O)(=O)c2ccccc2)cc1 [CBK266883] | 95.2%
O=C(Nc1ccc([N+](=O)[O-])cc1)Nc1ccc(N2CCOCC2)c2nonc12 [CBK266885] | 93.1%
COC(=O)c1ccccc1NC(=O)NCc1cc(C)n(C)n1 [CBK266887C] | 109%
O=c1c(-c2nncn2-c2ccccc2)coc2c(O)c(O)ccc12 [CBK266889] | 102%
Cc1ccc2nc(C)cc(C(=O)NNC(=O)Nc3ccc([N+](=O)[O-])cc3)c2c1 [CBK266890] | 98.8%
COc1ccc(NC(=S)N2CCN(C/C=C/c3ccccc3)CC2)cc1OC [CBK266891] | 88.7%
COC(=O)c1c(NC(=S)Nc2cnccn2)sc2c1CCC(C)C2 (stereo not shown) [CBK266893] | 94.2%
Cc1ccc(C)c(S(=O)(=O)Nc2ccc(O)c(Sc3nnc[nH]3)c2)c1 [CBK266894] | 95.2%
S=C(NCc1ccco1)NCc1cn(-c2ccccc2)nc1-c1ccccc1 [CBK266895] | 112%
Cc1cccc(NC(=O)C(Cc2ccccc2)C(=O)Nc2cccc(C)c2)c1 [CBK266899] | 91.9%
O=C(COc1ccccc1)NC1C(=O)N2C(C(=O)O)=C(Cl)CSC12 (stereo not shown) [CBK266903] | 92.7%
O=C(Cc1ccccc1[N+](=O)[O-])NNC(=S)Nc1ccc(F)c(Cl)c1 [CBK266904] | 101%
O=C(O)CCNS(=O)(=O)c1ccc2[nH]c(=O)[nH]c2c1 [CBK266906] | 91%
O=C(NNC(=O)C1CCN(S(=O)(=O)c2ccc(Br)cc2)CC1)NC12CC3CC(CC(C3)C1)C2 [CBK266907] | 94.5%
